Molecules are shown by their SMILES. Values joined by “and” are separate entries in the source; they are usually repeats but may differ in a detail not shown here. Equal values may be shown once.

This series can be described thus: Histopathology at necropsy and pathology severity scoring. Type of series: in vivo, mouse. To be noted: small tumors; single-cycle study; ~85 d; individual animals.

For the compound `Nc1ccc(CC2CN(CC(=O)[O-])CCN(CC(=O)[O-])CCN(CC(=O)[O-])CCN2CC(=O)[O-])cc1.[177Lu+3]` (stereo not shown) [^177Lu-DOTA-Bn], the “Histopathologic findings, Bone marrow” value is recorded as “N”; the “Histopathologic findings, Kidney” value is “N”; the “Histopathologic findings, Liver” value is listed as “N”; the “Histopathologic findings, Spleen” value is “HH, 3. and N (2×)”.

For the origin of these results see patent US20210017295A1, “BISPECIFIC BINDING AGENTS AND USES THEREOF” (MEMORIAL SLOAN KETTERING CANCER CENTER, priority 2018, published 2021).
